Like-named read-outs stand apart in the source and are kept apart here. Each block holds one compound with its values, some of them ahead of it.
Tests used:
LNCaP = assay: Inhibition of cells growth by colorimetric (SRB) assay, LNCaP
In short: (§1)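 Human tumour cells in RPMI 1640 with 10% FBS were seeded at 5×10^3 cells/well, allowed to attach for 18 h, then exposed to samples at 10 to 10^−8 μg/ml for 48 h. Growth was measured by SRB staining after TCA fixation, with absorbance read at 490 nm in triplicate wells.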

K-562 = assay: Inhibition of cells growth by colorimetric (SRB) assay, K-562
In short: as §1

SK-BR-3 = assay: Inhibition of cells growth by colorimetric (SRB) assay, SK-BR-3
In short: as §1

SK-MEL-28 = assay: Inhibition of cells growth by colorimetric (SRB) assay, SK-MEL-28
In short: as §1

HeLa = assay: Inhibition of cells growth by colorimetric (SRB) assay, HeLa
In short: as §1

DU-145 = assay: Inhibition of cells growth by colorimetric (SRB) assay, DU-145
In short: as §1

PANC-1 = assay: Inhibition of cells growth by colorimetric (SRB) assay, PANC-1
In short: as §1

A-549 = assay: Inhibition of cells growth by colorimetric (SRB) assay, A-549
In short: as §1

LoVo = assay: Inhibition of cells growth by colorimetric (SRB) assay, LoVo
In short: as §1

HT-29 = assay: Inhibition of cells growth by colorimetric (SRB) assay, HT-29
In short: as §1

HeLa-APL = assay: Inhibition of cells growth by colorimetric (SRB) assay, HeLa-APL
In short: as §1

IGROV-1 = assay: Inhibition of cells growth by colorimetric (SRB) assay, IGROV-1
In short: as §1

LoVo-Dox = assay: Inhibition of cells growth by colorimetric (SRB) assay, LoVo-Dox
In short: as §1

IGROV-ET = assay: Inhibition of cells growth by colorimetric (SRB) assay, IGROV-ET
In short: as §1

HMEC1 = assay: Inhibition of cells growth by colorimetric (SRB) assay, HMEC1
[1] = as above; details: human, HMEC1 cells, LC50 H-MEC-1, SRB assay, 48 hours exposure
[2] = Homo sapiens, A549, 48 h, read-out: GI50 A-549, SRB assay, 48 hours exposure
[3] = read-out: A-549 LC50, SRB assay, 48 hours exposure
[4] = read-out: HT-29 GI50, SRB assay, 48 hours exposure
[5] = read-out: HT-29 LC50, SRB assay, 48 hours exposure

- GI50 (LNCaP; Homo sapiens, LNCaP, 48 h, read-out: LN-caP GI50, SRB assay, 48 hours exposure): 1.36 µM
- GI50 (K-562; Homo sapiens, K562, 48 h, read-out: K-562 GI50, SRB assay, 48 hours exposure): 5.27 µM
- GI50 (SK-BR-3; Homo sapiens, SK-BR-3, 48 h, read-out: SK-BR-3 GI50, SRB assay, 48 hours exposure): 1.24 µM
- GI50 (SK-MEL-28; Homo sapiens, SK-MEL-28, 48 h, read-out: MEL-28 GI50, SRB assay, 48 hours exposure): 0.85 µM
- GI50 (HeLa; Homo sapiens, HeLa, 48 h, read-out: HELA GI50, SRB assay, 48 hours exposure): 0.0233 µM
- GI50 (DU-145; Homo sapiens, DU-145, 48 h, read-out: DU-145 GI50, SRB assay, 48 hours exposure): 1.68 µM
- GI50 (PANC-1; Homo sapiens, PANC-1, 48 h, read-out: PANC-1 GI50, SRB assay, 48 hours exposure): 5.71 µM
- GI50 (A-549; Homo sapiens, A549, 48 h, read-out: A-549 GI50, SRB assay, 48 hours exposure): 0.937 µM
- GI50 (A-549; [2]): 2.17 µM
- GI50 (LoVo; Homo sapiens, LoVo, 48 h, read-out: LOVO GI50, SRB assay, 48 hours exposure): 0.717 µM
- GI50 (HT-29; Homo sapiens, HT-29, 48 h, read-out: HT-29 GI50, SRB assay, 48 hours exposure): 0.932 µM
- GI50 (HT-29; [4]): 1.13 µM
- GI50 (HeLa-APL; Homo sapiens, 48 h, read-out: HELA-APL GI50, SRB assay, 48 hours exposure): 0.0182 µM
- GI50 (LoVo-Dox; Homo sapiens, 48 h, read-out: LOVO-DOX GI50, SRB assay, 48 hours exposure): 1.22 µM
SMILES: CSc1nccc(-c2c3ccc(C)nc3n3c(N)nccc23)n1 [Compound 43]
- CC50 (LNCaP; Homo sapiens, LNCaP, 48 h, read-out: LN-caP LC50, SRB assay, 48 hours exposure): 12.5 µM
- LN-caP TGI (LNCaP; SRB assay, 48 hours exposure): 3.94E−06
- CC50 (K-562; Homo sapiens, K562, 48 h, read-out: K-562 LC50, SRB assay, 48 hours exposure): 21.2 µM
- K-562 TGI (K-562; SRB assay, 48 hours exposure): 1.06E−05
- CC50 (SK-BR-3; Homo sapiens, SK-BR-3, 48 h, read-out: SK-BR-3 LC50, SRB assay, 48 hours exposure): ≥ 31 µM
- SK-BR-3 TGI (SK-BR-3; SRB assay, 48 hours exposure): 5.27E−06
- CC50 (SK-MEL-28; Homo sapiens, SK-MEL-28, 48 h, read-out: MEL-28 LC50, SRB assay, 48 hours exposure): 15.3 µM
- MEL-28 TGI (SK-MEL-28; SRB assay, 48 hours exposure): 3.72E−06
- HELA TGI (HeLa; SRB assay, 48 hours exposure): 2.03E−07
- CC50 (DU-145; Homo sapiens, DU-145, 48 h, read-out: DU-145 LC50, SRB assay, 48 hours exposure): 24.5 µM
- DU-145 TGI (DU-145; SRB assay, 48 hours exposure): 6.79E−06
- CC50 (PANC-1; Homo sapiens, PANC-1, 48 h, read-out: PANC-1 LC50, SRB assay, 48 hours exposure): ≥ 31 µM
- PANC-1 TGI (PANC-1; SRB assay, 48 hours exposure): 1.65E−05
- CC50 (A-549; Homo sapiens, A549, 48 h, read-out: A-549 LC50, SRB assay, 48 hours exposure): 31.1 µM
- CC50 (A-549; [3]): ≥ 17.3 µM
- CC50 (LoVo; Homo sapiens, LoVo, 48 h, read-out: LOVO LC50, SRB assay, 48 hours exposure): ≥ 31 µM
- LOVO TGI (LoVo; SRB assay, 48 hours exposure): 2.37E−06
- CC50 (HT-29; Homo sapiens, HT-29, 48 h, read-out: HT-29 LC50, SRB assay, 48 hours exposure): 31.1 µM
- CC50 (HT-29; [5]): ≥ 31 µM
- CC50 (HeLa-APL; Homo sapiens, 48 h, read-out: HELA-APL LC50, SRB assay, 48 hours exposure): 7.88 µM
- HELA-APL TGI (HeLa-APL; SRB assay, 48 hours exposure): 1.75E−07
- GI50 (IGROV-1; Homo sapiens, IGROV-1, 48 h, read-out: IGROV GI50, SRB assay, 48 hours exposure): 6.64 µM
- CC50 (IGROV-1; Homo sapiens, IGROV-1, 48 h, read-out: IGROV LC50, SRB assay, 48 hours exposure): ≥ 31 µM
- IGROV TGI (IGROV-1; SRB assay, 48 hours exposure): 1.60E−05
- CC50 (LoVo-Dox; Homo sapiens, 48 h, read-out: LOVO-DOX LC50, SRB assay, 48 hours exposure): ≥ 31 µM
- LOVO-DOX TGI (LoVo-Dox; SRB assay, 48 hours exposure): 5.24E−06
- GI50 (IGROV-ET; Homo sapiens, 48 h, read-out: IGROV-ET GI50, SRB assay, 48 hours exposure): 3.69 µM
- CC50 (IGROV-ET; Homo sapiens, 48 h, read-out: IGROV-ET LC50, SRB assay, 48 hours exposure): ≥ 31 µM
- IGROV-ET TGI (IGROV-ET; SRB assay, 48 hours exposure): 1.87E−05

- GI50 (LNCaP; read-out: LN-caP GI50, SRB assay, 48 hours exposure): 4.1 µM
- GI50 (K-562; read-out: K-562 GI50, SRB assay, 48 hours exposure): ≥ 30.8 µM
- GI50 (SK-BR-3; read-out: SK-BR-3 GI50, SRB assay, 48 hours exposure): 1.52 µM
- GI50 (SK-MEL-28; read-out: MEL-28 GI50, SRB assay, 48 hours exposure): ≥ 30.8 µM
- GI50 (HeLa; read-out: HELA GI50, SRB assay, 48 hours exposure): 0.00916 µM
- GI50 (DU-145; read-out: DU-145 GI50, SRB assay, 48 hours exposure): 10.2 µM
- GI50 (PANC-1; read-out: PANC-1 GI50, SRB assay, 48 hours exposure): 24.2 µM
- GI50 (A-549; [2]): ≥ 30.8 µM
- GI50 (A-549; read-out: A-549 GI50, SRB assay, 48 hours exposure): 8.63 µM
- GI50 (LoVo; read-out: LOVO GI50, SRB assay, 48 hours exposure): 11.3 µM
- GI50 (HT-29; Homo sapiens, HT-29, 48 h, read-out: GI50 HT-29, SRB assay, 48 hours exposure): ≥ 30.8 µM
- GI50 (HT-29; [4]): ≥ 30.8 µM
- GI50 (HeLa-APL; read-out: HELA-APL GI50, SRB assay, 48 hours exposure): 0.00546 µM
- GI50 (LoVo-Dox; read-out: LOVO-DOX GI50, SRB assay, 48 hours exposure): ≥ 30.8 µM
SMILES: CSc1nccc(-c2c3c(O)ccnc3n3c(N)nccc23)n1 [Compound 95]
- LN-caP TGI (LNCaP; SRB assay, 48 hours exposure): 3.08E−05
- CC50 (LNCaP; read-out: LN-caP LC50, SRB assay, 48 hours exposure): ≥ 30.8 µM
- K-562 TGI (K-562; SRB assay, 48 hours exposure): 3.08E−05
- CC50 (K-562; read-out: K-562 LC50, SRB assay, 48 hours exposure): ≥ 30.8 µM
- SK-BR-3 TGI (SK-BR-3; SRB assay, 48 hours exposure): 3.08E−05
- CC50 (SK-BR-3; read-out: SK-BR-3 LC50, SRB assay, 48 hours exposure): ≥ 30.8 µM
- MEL-28 TGI (SK-MEL-28; SRB assay, 48 hours exposure): 3.08E−05
- CC50 (SK-MEL-28; read-out: MEL-28 LC50, SRB assay, 48 hours exposure): ≥ 30.8 µM
- HELA TGI (HeLa; SRB assay, 48 hours exposure): 2.57E−08
- GI50 (HMEC1; Homo sapiens, HMEC-1, 48 h, read-out: GI50 H-MEC-1, SRB assay, 48 hours exposure): ≥ 30.8 µM
- TGI H-MEC-1 (HMEC1; SRB assay, 48 hours exposure, in M (unit assumed)): 3.08E−05
- CC50 at 48 h [1]: ≥ 30.8 µM
- DU-145 TGI (DU-145; SRB assay, 48 hours exposure): 3.08E−05
- CC50 (DU-145; read-out: DU-145 LC50, SRB assay, 48 hours exposure): ≥ 30.8 µM
- PANC-1 TGI (PANC-1; SRB assay, 48 hours exposure): 3.08E−05
- CC50 (PANC-1; read-out: PANC-1 LC50, SRB assay, 48 hours exposure): ≥ 30.8 µM
- CC50 (A-549; Homo sapiens, A549, 48 h, read-out: LC50 A-549, SRB assay, 48 hours exposure): ≥ 30.8 µM
- A-549 TGI (A-549; SRB assay, 48 hours exposure): 3.08E−05
- TGI A-549 (A-549; SRB assay, 48 hours exposure): 3.08E−05
- CC50 (A-549; [3]): ≥ 30.8 µM
- LOVO TGI (LoVo; SRB assay, 48 hours exposure): 3.08E−05
- CC50 (LoVo; read-out: LOVO LC50, SRB assay, 48 hours exposure): ≥ 30.8 µM
- CC50 (HT-29; Homo sapiens, HT-29, 48 h, read-out: LC50 HT-29, SRB assay, 48 hours exposure): ≥ 30.8 µM
- HT-29 TGI (HT-29; SRB assay, 48 hours exposure): 3.08E−05
- TGI HT-29 (HT-29; SRB assay, 48 hours exposure): 3.08E−05
- CC50 (HT-29; [5]): ≥ 30.8 µM
- HELA-APL TGI (HeLa-APL; SRB assay, 48 hours exposure): 1.31E−08
- CC50 (HeLa-APL; read-out: HELA-APL LC50, SRB assay, 48 hours exposure): 0.0382 µM
- IGROV TGI (IGROV-1; SRB assay, 48 hours exposure): 3.08E−05
- GI50 (IGROV-1; read-out: IGROV GI50, SRB assay, 48 hours exposure): ≥ 30.8 µM
- CC50 (IGROV-1; read-out: IGROV LC50, SRB assay, 48 hours exposure): ≥ 30.8 µM
- LOVO-DOX TGI (LoVo-Dox; SRB assay, 48 hours exposure): 3.08E−05
- CC50 (LoVo-Dox; read-out: LOVO-DOX LC50, SRB assay, 48 hours exposure): ≥ 30.8 µM
- IGROV-ET TGI (IGROV-ET; SRB assay, 48 hours exposure): 3.08E−05
- GI50 (IGROV-ET; read-out: IGROV-ET GI50, SRB assay, 48 hours exposure): 3.95 µM
- CC50 (IGROV-ET; read-out: IGROV-ET LC50, SRB assay, 48 hours exposure): ≥ 30.8 µM
